According to patent publication US5750361A (priority 1995, dated 1998):
“Also recorded” adds a separate entry of the source. Counter-ions that a name gives are not always drawn.

Tests used:
proteinase K = assay type: biochemical
[^35 S-]PrP^C = assay type: biochemical, Syrian hamster
[^35 S-]SHaPrP^C = [^35 S-]SHaPrP^C (Mesocricetus auratus, UniProt P04273); assay type: biochemical
[^35 S-]SHaPrP^C, sequence (P04273 23-254 limits assumed): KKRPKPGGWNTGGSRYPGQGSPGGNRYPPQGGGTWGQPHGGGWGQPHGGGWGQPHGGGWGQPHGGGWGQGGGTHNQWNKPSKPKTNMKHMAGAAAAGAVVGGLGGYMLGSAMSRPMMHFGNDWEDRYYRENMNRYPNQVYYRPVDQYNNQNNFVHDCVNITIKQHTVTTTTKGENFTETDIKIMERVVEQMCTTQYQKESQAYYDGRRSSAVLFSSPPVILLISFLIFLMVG

SMILES	Reduction of proteinase K activity (proteinase K)	Requirement of Gdn-HCl for complex formation ([^35 S-]PrP^C)	Effect of Sarkosyl on PrP^C /PrP peptide complexes ([^35 S-]SHaPrP^C)
N=C(N)N [Gdn-HCl, guanidine hydrochloride]	~ 90%	seemed to be essential	
CCCCCCCCCCCC(=O)N(C)CC(=O)O [Sarkosyl]			disrupted the prion protein complexes and rendered the PrP^C sensitive to protease activity; also recorded: disrupted the PrP^C /PrP peptide complexes and rendered the PrP^C sensitive to protease activity
